# What was measured:
# [1] = system: cryopreserved human hepatocytes; assay: In vitro human hepatocyte stability; assay type: in vitro ADME; settings: human hepatocytes 0.5×10^6 cells/mL, 1 μM
# Method: The metabolic stability of test articles (1 μM) in commercially sourced, pooled donor, cryopreserved human hepatocytes (0.5×10^6 cells/mL) was determined in duplicate. The CLint reactions (250 μL) were initiated by addition of test compound. Aliquots (25 μL) were taken at 0, 15, 30, 45, 60, 90, 120 and 240 minutes and then protein crashed with ice-cold acetonitrile containing internal standard then centrifuged (3220 g for 25 minutes). Supernatant was used for LC-MS/MS analysis. The in vitro half-life (in vitro t½) was determined from the slope value: in vitro t1/2=−0.693/k. Conversion of the in vitro t1/2 (in min) into the scale-up unbound intrinsic clearance (Scaled-up unbound CLint, in mL/min/kg) was done using the following equation (mean of duplicate determinations), with data shown in Table 5: Scaled-up unbound CLint=kV/N×scaling factor. V=incubation volume (0.25 mL); N=number of hepatocytes per well ([…]). Scaling factors for in vivo intrinsic clearance prediction are listed below: […]
# [2] = system: kainic acid seizure model; assay: Kainic acid seizure model in the rat; assay type: in vivo
# Method: Kainic acid is an analog of the excitatory neurotransmitter, glutamate and acts as an agonist of kainic acid receptors. After systemic injection, kainic acid induces prolonged excitatory responses with many of the features of human temporal lobe epilepsy.
# Rats, placed in individual Plexiglas cages (33×21×18 cm), are injected with kainic acid (20 mg/kg i.p.). The occurrences of the following symptoms are noted over a 120-minute period 30 minutes after kainic acid injection: forelimb clonus, rearings and rearings with falling, clonic convulsions, tonic convulsions and death. The presence of each symptom and the latencies to the first appearance of the symptoms are measured. The number of forelimb clonus is counted.
# 12 rats are studied per group. The test is performed partially blind.
# The test substances will be evaluated at multiple doses, administered p.o. 240 minutes before the test, and compared with the corresponding vehicle control group (Group 2, administered with 10% HP-b-CD in distilled water, p.o. 240 minutes before the test).
# Example 6 was evaluated at 0.3, 1, 3 and 10 mg/kg, and Example 8 was evaluated at 1, 3 and 10 mg/kg, administered p.o. 4 hours before the test, and compared with a vehicle control group (administered with 10% HP-b-CD, p.o. 4 hours before the test).
# Diazepam (16 mg/kg) used as reference substance, was administered p.o. 60 minutes before the test (0.5% HP-b-CD) and was compared with vehicle controls.
# Quantitative data (latencies) with the test substance was analyzed by comparing treated groups with vehicle control using Kruskal-Wallis test followed by Mann-Whitney U test. Quantitative data with the reference substance will be analysed using Mann-Whitney U test.
# Quantal data (frequencies) were analyzed by comparing treated groups with vehicle control using Fisher's Exact Probability tests.
compound,measurement,setting,value
"O=C(Nc1cccnn1)[C@H]1CC12CCN(C(=O)OC(C(F)(F)F)C(F)(F)F)CC2 [Example 6, 1,1,1,3,3,3-Hexafluoropropan-2-yl (S)-1-(pyridazin-3-ylcarbamoyl)-6-azaspiro[2.5]octane-6-carboxylate]",Scaled-up unbound CLint,[1],5.79 mL/min/kg
same,anticonvulsant effects in the kainic acid seizure test,"[2]; dose-range 0.3-10 mg/kg p.o., 4 hours before the test, rat",clear anticonvulsant effects
same,magnitude of the effects in the kainic acid seizure test compared with reference,"[2]; middle-high doses, reference Diazepam 16 mg/kg p.o.","close to those observed with the reference substance, Diazepam"

# Source: patent US20240018120A1, “MAGL INHIBITORS” (H. LUNDBECK A/S, priority 2020, published 2024)
